From ChEMBL document CHEMBL3991601, “The target landscape of clinical kinase drugs” (Science, 2017)
pKd: −log10 of the molar value. The source made the active and inactive calls. Rule as the data show it, for most assays here: actives have a measured Kd and inactives only a lower limit.

How the values were obtained:
[1] = biological target: T1, Probable ATP-dependent RNA helicase DDX6 (Homo sapiens, UniProt P26196)
T1 sequence (P26196 whole entry): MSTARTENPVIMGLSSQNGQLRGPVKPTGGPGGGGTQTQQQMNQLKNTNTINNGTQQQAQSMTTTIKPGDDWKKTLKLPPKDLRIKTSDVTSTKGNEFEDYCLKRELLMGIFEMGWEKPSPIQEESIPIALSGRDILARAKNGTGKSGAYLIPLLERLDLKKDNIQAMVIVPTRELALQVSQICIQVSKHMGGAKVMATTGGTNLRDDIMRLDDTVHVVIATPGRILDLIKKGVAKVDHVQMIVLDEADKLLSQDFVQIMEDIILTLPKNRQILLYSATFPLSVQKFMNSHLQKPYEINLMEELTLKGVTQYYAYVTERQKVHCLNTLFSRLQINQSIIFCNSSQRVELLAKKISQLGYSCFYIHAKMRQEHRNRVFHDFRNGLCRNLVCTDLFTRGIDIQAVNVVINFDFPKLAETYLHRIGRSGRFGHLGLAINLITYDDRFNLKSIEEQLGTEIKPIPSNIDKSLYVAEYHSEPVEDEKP

Ephrin type-B receptor 4 = biological target: T2, Ephrin type-B receptor 4 (Homo sapiens, UniProt P54760)
T2 sequence (P54760 whole entry): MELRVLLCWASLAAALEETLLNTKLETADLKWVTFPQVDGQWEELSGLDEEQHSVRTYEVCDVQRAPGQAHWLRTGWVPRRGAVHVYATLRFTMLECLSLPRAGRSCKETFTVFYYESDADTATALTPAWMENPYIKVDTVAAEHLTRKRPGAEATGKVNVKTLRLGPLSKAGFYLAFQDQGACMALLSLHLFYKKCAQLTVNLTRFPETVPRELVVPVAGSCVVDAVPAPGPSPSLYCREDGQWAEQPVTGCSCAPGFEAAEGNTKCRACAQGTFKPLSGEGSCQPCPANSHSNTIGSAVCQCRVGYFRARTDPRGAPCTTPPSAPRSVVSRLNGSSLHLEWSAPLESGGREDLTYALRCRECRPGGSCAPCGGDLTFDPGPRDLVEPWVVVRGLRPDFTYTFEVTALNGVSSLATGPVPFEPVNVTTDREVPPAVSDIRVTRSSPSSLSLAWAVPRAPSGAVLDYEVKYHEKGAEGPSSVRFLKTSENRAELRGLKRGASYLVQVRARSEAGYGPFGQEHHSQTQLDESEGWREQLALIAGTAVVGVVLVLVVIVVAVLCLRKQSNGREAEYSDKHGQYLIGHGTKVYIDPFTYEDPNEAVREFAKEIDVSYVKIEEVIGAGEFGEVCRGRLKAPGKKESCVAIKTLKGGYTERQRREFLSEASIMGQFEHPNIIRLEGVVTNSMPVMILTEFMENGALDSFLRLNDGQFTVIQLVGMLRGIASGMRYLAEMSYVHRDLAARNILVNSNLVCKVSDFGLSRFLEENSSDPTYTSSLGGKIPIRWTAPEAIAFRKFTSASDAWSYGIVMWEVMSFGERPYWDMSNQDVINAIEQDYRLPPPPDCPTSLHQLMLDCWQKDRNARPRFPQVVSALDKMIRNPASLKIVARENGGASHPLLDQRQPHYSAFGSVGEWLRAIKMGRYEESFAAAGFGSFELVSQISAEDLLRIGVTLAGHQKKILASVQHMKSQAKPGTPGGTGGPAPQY

[2] = biological target: T3, Phosphatidylinositol 5-phosphate 4-kinase type-2 gamma (Homo sapiens, UniProt Q8TBX8)
T3 sequence (Q8TBX8 whole entry): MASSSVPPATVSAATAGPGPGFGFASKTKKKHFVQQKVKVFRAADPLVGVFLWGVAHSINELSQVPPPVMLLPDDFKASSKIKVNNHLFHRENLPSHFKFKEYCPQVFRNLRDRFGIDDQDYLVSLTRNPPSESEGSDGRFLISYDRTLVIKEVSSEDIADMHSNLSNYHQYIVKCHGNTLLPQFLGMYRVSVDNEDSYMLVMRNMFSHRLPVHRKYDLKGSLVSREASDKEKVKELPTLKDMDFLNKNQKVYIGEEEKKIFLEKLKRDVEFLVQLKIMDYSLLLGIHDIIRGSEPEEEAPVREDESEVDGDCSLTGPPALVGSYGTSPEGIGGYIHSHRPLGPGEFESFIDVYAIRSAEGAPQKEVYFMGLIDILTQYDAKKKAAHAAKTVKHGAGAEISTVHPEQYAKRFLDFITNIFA

[3] = biological target: T4, Serine/threonine-protein kinase ULK1 (Homo sapiens, UniProt O75385)
T4 sequence (O75385 whole entry): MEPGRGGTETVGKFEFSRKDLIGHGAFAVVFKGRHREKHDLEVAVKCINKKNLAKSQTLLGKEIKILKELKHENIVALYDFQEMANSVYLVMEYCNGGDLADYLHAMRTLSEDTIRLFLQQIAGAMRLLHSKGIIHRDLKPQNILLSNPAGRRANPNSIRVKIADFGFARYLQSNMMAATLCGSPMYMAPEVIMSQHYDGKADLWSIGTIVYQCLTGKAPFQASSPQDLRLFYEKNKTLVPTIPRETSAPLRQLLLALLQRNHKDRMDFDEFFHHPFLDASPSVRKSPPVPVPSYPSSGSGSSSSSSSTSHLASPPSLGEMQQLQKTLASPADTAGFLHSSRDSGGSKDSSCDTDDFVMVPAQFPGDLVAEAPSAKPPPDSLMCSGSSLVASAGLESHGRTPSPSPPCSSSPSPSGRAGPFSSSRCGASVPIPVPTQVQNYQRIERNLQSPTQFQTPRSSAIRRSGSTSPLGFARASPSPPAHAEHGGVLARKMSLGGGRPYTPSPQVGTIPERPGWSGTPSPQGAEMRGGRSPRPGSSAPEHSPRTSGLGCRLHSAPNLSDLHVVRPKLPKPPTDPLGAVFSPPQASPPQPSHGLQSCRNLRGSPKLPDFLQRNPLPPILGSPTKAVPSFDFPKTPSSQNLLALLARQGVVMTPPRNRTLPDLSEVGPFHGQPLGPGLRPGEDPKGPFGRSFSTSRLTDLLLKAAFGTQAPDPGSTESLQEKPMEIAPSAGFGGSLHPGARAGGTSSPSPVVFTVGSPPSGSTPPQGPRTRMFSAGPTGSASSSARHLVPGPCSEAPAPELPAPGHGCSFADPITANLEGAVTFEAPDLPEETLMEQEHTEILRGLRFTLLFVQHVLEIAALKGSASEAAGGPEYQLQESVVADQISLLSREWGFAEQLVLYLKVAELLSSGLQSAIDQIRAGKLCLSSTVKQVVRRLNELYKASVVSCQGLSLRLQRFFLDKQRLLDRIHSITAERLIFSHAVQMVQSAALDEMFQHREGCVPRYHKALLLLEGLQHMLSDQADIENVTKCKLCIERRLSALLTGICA
Also: in the data inactive means no Kd found up to 30 µM.

Kd [1]	Kd (Ephrin type-B receptor 4)	Kd [2]	Kd [3]	pKd [1]	pKd [2]	Structure (SMILES)
> 30 µM (inactive)	26.4 µM (active)	> 30 µM (inactive)	> 30 µM (inactive)	–	–	CCN1CCN(Cc2ccc(-c3cc4c(N[C@H](C)c5ccccc5)ncnc4[nH]3)cc2)CC1 [AEE-788]
> 30 µM (inactive)	> 30 µM (inactive)	> 30 µM (inactive)	> 30 µM (inactive)	–	–	COc1cc(N2CCC(N3CCN(C)CC3)CC2)ccc1Nc1ncnc(Nc2ccccc2S(=O)(=O)C(C)C)n1 [ASP-3026]
> 30 µM (inactive)	> 30 µM (inactive)	> 30 µM (inactive)	> 30 µM (inactive)	–	–	COc1cc(CCc2cc(NC(=O)c3ccc(N4C[C@@H](C)N[C@@H](C)C4)cc3)n[nH]2)cc(OC)c1 [AZD-4547]
–	> 30 µM (inactive)	> 30 µM (inactive)	> 30 µM (inactive)	5.39	–	Cc1cc([C@@H](C)Nc2ccccc2C(=O)O)c2nc(N3CCOCC3)cc(=O)n2c1 [AZD-6482]
> 30 µM (inactive)	> 30 µM (inactive)	> 30 µM (inactive)	> 30 µM (inactive)	–	–	COc1ccc(-c2ccc3c(N4CCOC[C@@H]4C)nc(N4CCOC[C@@H]4C)nc3n2)cc1CO [AZD-8055]
–	> 30 µM (inactive)	> 30 µM (inactive)	> 30 µM (inactive)	–	–	C[C@@H](Nc1cc(F)cc(F)c1)c1cc(C(=O)N(C)C)cc2c(=O)cc(N3CCOCC3)oc12 [AZD-8186]
> 30 µM (inactive)	4.61 µM (active)	0.067 µM (active)	> 30 µM (inactive)	–	–	Cc1nc(N)sc1-c1ccnc(Nc2ccc(N3CCOCC3)cc2)n1 [CYC-116]
> 30 µM (inactive)	> 30 µM (inactive)	> 30 µM (inactive)	–	–	–	Cc1cc(Nc2cc(N3CCN(C)CC3)nc(/C=C/c3ccccc3)n2)n[nH]1 [ENMD-2076]
> 30 µM (inactive)	–	–	–	–	–	CCn1c(-c2nonc2N)nc2c(C#CC(C)(C)O)ncc(OC[C@H]3CCCNC3)c21 [GSK-690693]

The remaining lines, values behind:

Structure (SMILES)	Kd [1]	Kd (Ephrin type-B receptor 4)	Kd [2]	Kd [3]	pKd [1]	pKd [2]
N[C@@H]1CCCN(c2c(/C=C3\SC(=O)NC3=O)cccc2-c2ccccc2)C1	> 30 µM (inactive)	> 30 µM (inactive)	> 30 µM (inactive)	> 30 µM (inactive)	–	–
Cc1ccc(S(=O)(=O)Nc2nc3ccccc3nc2Nc2ccc3nsnc3c2)cc1	> 30 µM (inactive)	> 30 µM (inactive)	> 30 µM (inactive)	> 30 µM (inactive)	–	–
CN1CC[C@@H](c2c(O)cc(O)c3c(=O)cc(-c4ccccc4Cl)oc23)[C@@H]1CO	> 30 µM (inactive)	> 30 µM (inactive)	> 30 µM (inactive)	> 30 µM (inactive)	–	–
Cc1cc(-c2cc(O)ccc2Cl)cc2nnc(Nc3ccc(OCCN4CCCC4)cc3)nc12	> 30 µM (inactive)	0.0009 µM (active)	> 30 µM (inactive)	> 30 µM (inactive)	–	–
Cn1ncc(Cl)c1-c1cc(C(=O)N[C@H](CN)Cc2cccc(F)c2)sc1Cl [AFURESERTIB]	–	> 30 µM (inactive)	> 30 µM (inactive)	–	–	–
CNS(=O)(=O)Nc1nccc(Cc2c(C)c3ccc(Oc4ncccn4)cc3oc2=O)c1F [AVUTOMETINIB]	> 30 µM (inactive)	> 30 µM (inactive)	> 30 µM (inactive)	> 30 µM (inactive)	–	–
Cc1ccc(NC(=O)c2ccc(CN3CC[C@H](N(C)C)C3)c(C(F)(F)F)c2)cc1Nc1nccc(-c2cncnc2)n1 [BAFETINIB]	> 30 µM (inactive)	1.3 µM (active)	–	> 30 µM (inactive)	–	5.21
CCS(=O)(=O)N1CC(CC#N)(n2cc(-c3ncnc4[nH]ccc34)cn2)C1 [BARICITINIB]	> 30 µM (inactive)	> 30 µM (inactive)	> 30 µM (inactive)	0.81 µM (active)	–	–
Cc1cc2c(F)c(Oc3ncnn4cc(OC[C@@H](C)OC(=O)[C@H](C)N)c(C)c34)ccc2[nH]1 [BRIVANIB ALANINATE]	> 30 µM (inactive)	> 30 µM (inactive)	> 30 µM (inactive)	> 30 µM (inactive)	–	–
CNC(=O)c1ccc(-c2cnc3ncc(Cc4ccc5ncccc5c4)n3n2)cc1F [CAPMATINIB]	> 30 µM (inactive)	> 30 µM (inactive)	> 30 µM (inactive)	> 30 µM (inactive)	–	–
O=C(c1ccc(F)c(F)c1Nc1ccc(I)cc1F)N1CC(O)([C@@H]2CCCCN2)C1 [COBIMETINIB]	> 30 µM (inactive)	> 30 µM (inactive)	> 30 µM (inactive)	> 30 µM (inactive)	–	–
CCc1cnn2c(NCc3ccc[n+]([O-])c3)cc(N3CCCC[C@H]3CCO)nc12 [DINACICLIB]	> 30 µM (inactive)	> 30 µM (inactive)	> 30 µM (inactive)	> 30 µM (inactive)	–	–
CN1CCN(c2ccc3nc(-c4c(N)c5c(F)cccc5[nH]c4=O)[nH]c3c2)CC1 [DOVITINIB]	> 30 µM (inactive)	–	–	–	–	–
Cc1cn(-c2cc(NC(=O)c3ccc(C)c(Nc4nccc(-c5cccnc5)n4)c3)cc(C(F)(F)F)c2)cn1 [NILOTINIB]	> 30 µM (inactive)	–	–	–	–	–
CNC(=O)c1ccc(C)c(-n2c(C)cc(OCc3ccc(F)cc3F)c(Br)c2=O)c1 [PH-797804]	–	> 30 µM (inactive)	> 30 µM (inactive)	–	–	–
C[C@@H](c1ccc2nccn2c1)n1nnc2ncc(-c3cnn(C)c3)nc21 [SAVOLITINIB]	> 30 µM (inactive)	> 30 µM (inactive)	–	> 30 µM (inactive)	–	–
O=C(Nc1cccc(Cl)c1)Nc1ncc(CCNc2ncnc3ccsc23)s1 [SNS-314]	> 30 µM (inactive)	> 30 µM (inactive)	–	> 30 µM (inactive)	–	–
Nc1nc(N)c2nc(-c3cccc(O)c3)c(-c3cccc(O)c3)nc2n1 [TG100-115]	> 30 µM (inactive)	–	–	–	–	–
COc1cc2nccc(Oc3ccc(NC(=O)Nc4cc(C)on4)c(Cl)c3)c2cc1OC [TIVOZANIB]	> 30 µM (inactive)	–	> 30 µM (inactive)	> 30 µM (inactive)	–	–
